The subject of data set [1] is ATP-induced S6 phosphorylation in PDTOs. The note with it: selective P2X4, P2X1 or P2X7 inhibition; cited from earlier work.
Data set [2] has as its system human CRC tumor organoids. In words: Survival of human CRC tumor organoids in response to 5-FU in the absence or presence of 5-BDBD. The format is cell-based. As to conditions: colorectal cancer organoids that do not express P2X4 protein; 5-FU +/- P2X4 inhibitor (Fig. 3C). The source says: (§1) Survival of SU-DHL5 cells in response to doxorubicin in the absence or presence of 5-BDBD (B). Survival of human CRC tumor organoids in response to 5-FU in the absence or presence of 5-BDBD (C).
(§2) The inventors had previously shown that blocking P2X4 would sensitize organoids to 5-FU treatment (Schmitt et al, Nature, 2022). The inventors now confirmed that these organoids indeed express P2X4 (Fig. 3A, CRC-organoid #1).

The next data set relates to SU-DHL5 lymphoma cells. Kind of data set: Survival of SU-DHL5 cells in response to doxorubicin in the absence or presence of 5-BDBD. Type of data set: cell-based. As to conditions: lymphoma cells that do not express P2X4 protein; doxorubicin +/- 5-BDBD (Fig. 3B).
Text: as §1, §2

The subject of data set [3] is human CRC tumor organoids. As to conditions: organoids that express P2X4 (CRC-organoid #1); previously shown, Schmitt et al, Nature, 2022; cited from earlier work.

In the case of `O=C(Nc1ccc(C(=O)Nc2ccc(C(=O)Nc3ccc(S(=O)(=O)O)c4cc(S(=O)(=O)O)cc(S(=O)(=O)O)c34)cc2)cc1)Nc1ccc(C(=O)Nc2ccc(C(=O)Nc3ccc(S(=O)(=O)O)c4cc(S(=O)(=O)O)cc(S(=O)(=O)O)c34)cc2)cc1` [NF279], in data set [1], the “ATP-induced S6 phosphorylation” value is reported as “no effect”.

As for `O=C1CN=C(c2cccc(Br)c2)c2oc3ccccc3c2N1` [5-BDBD, 5-(3-Bromophenyl)-1,3-dihydro-2H-Benzofuro[3,2-e]-1,4-diazepin-2-one], the “sensitization towards P2X4 inhibition” value (in data set [2]; in the data set on SU-DHL5 lymphoma cells) was “no sensitization” throughout. The “ATP-induced S6 phosphorylation” value in data set [1] is “reduced”. Moreover, in data set [3], the “sensitization of organoids to 5-FU treatment” value is given as “sensitize”.

For `Clc1cccc(-c2nnnn2Cc2cccnc2)c1Cl` [A-438079], the “ATP-induced S6 phosphorylation” value in data set [1] was “no effect”.

Source of the values: EP4542231A1, “METHODS FOR IDENTIFYING AND STRATIFYING CANCERS AND CANCER PATIENTS BASED ON P2X4 RECEPTOR EXPRESSION” (Johann-Wolfgang-Goethe-Universität Frankfurt am Main, priority 2023, dated 2025).
